From patent US4880817A, “O-functionalized derivatives of substituted isoquinolin-3-ols having cardiotonic and/or phosphodiesterase fraction III inhibiting properties and/or renal vasodilating properties” (Ortho Pharmaceutical Corporation, priority 1987, dated 1989)
Like-named read-outs stand apart in the source and are kept apart here.

What was measured:
adult mongrel dogs [1] = assay: Acute in vivo cardiotonic activity in anesthetized dogs; parameters: species or system mongrel dog; conditions: Canis lupus familiaris, iv, relative to controls; for change in vivo at 0.375 mg/kg: dose 0.375 mpk; for change in vivo at 1.87 mg/kg: dose 1.87 mpk
Method: The acute in vivo cardiotonic activity of compounds prepared according to the present invention was determined according to a modification of the procedure described by Alousi et al., Circ.
In particular, adult mongrel dogs were anesthetized with sodium pentobarbital and were artificially respired. Arterial pressure was monitored via a femoral artery, and the pulse pressure was used to trigger a cardiotachometer for heart rate. Left ventricular pressure was determined with a Millar catheter, and dP/dT (the change in ventricular pressure with time) was derived. Cardiac output was determined by measuring ascending aortic blood flow with an electromagnetic flow probe, and myocardial contractile force was measured with a Walton Brodie strain gauge sutured to the right ventricle. Lead II EKG was also recorded.
A standard dose (10 μg/kg/min) of dopamine was administered to assess myocardial responsiveness.
Compounds of the invention were administered by intravenous infusion and the effects on cardiovascular parameters were determined.

adult mongrel dogs [2] = assay: Renal vasodilating activity in anesthetized dogs; type: in vivo, mongrel dog; conditions: Canis lupus familiaris
Method: Goldberg et al., J. Pharmacol. Exp. Ther., 163, 188 (1968), performed an investigation of the structural requirements for dopamine-like renal vasodilation of phenethylamines and apomorphine. The following procedure is a variation of the assay described in that report.
Adult mongrel dogs were anesthetized and surgically prepared for electromagnetic measurement of renal artery blood flow. A carotid artery was cannulated for measuring arterial blood pressure and drugs were administered intravenously or intraarterially (via the renal artery). Heart rate was monitored with a cardiotachometer. Renal vascular resistance was calculated as the ratio of mean arterial blood pressure to renal artery blood flow. Dopamine was infused intravenously at 3 μg/kg/min for ten minutes (at an infusion rate of about 1 ml/min) to determine responsiveness of each dog to renal dopamine receptor stimulation. Cumulative dose-response data were obtained by infusing a compound of this invention at progressively increasing (usually three-fold) infusion rates, each dose being infused for five minutes. The maximum percent change from pre-drug control in renal artery blood flow (or in renal vascular resistance) was determined for each infusion dose.
RBF, RVR, MABP, and HR values are percent changes in renal blood flow, renal vascular resistance, mean arterial blood pressure, and heart rate, respectively, relative to control values.

[3] = read-out: CF: percent change in cardiac force
[4] = read-out: HR: percent change in heart rate
[5] = read-out: MABP: percent change in mean arterial blood pressure
[6] = read-out: dP/dT: maximum percent change in left ventricular pressure with time

SMILES	change in vivo at 1.87 mg/kg (adult mongrel dogs [1]; [3]) [%]	change in vivo at 1.87 mg/kg (adult mongrel dogs [1]; [4]) [%]	change in vivo at 1.87 mg/kg (adult mongrel dogs [1]; [5]) [%]	change in vivo at 1.87 mg/kg (adult mongrel dogs [1]; [6]) [%]	further results
CCOc1cc2c(C)nc(OC(=O)CC)c([N+](=O)[O-])c2cc1OC [Cmpd 4]	–	–	–	–	change in vivo at 0.375 mg/kg (adult mongrel dogs [1]; [3]): 100%; change in vivo at 0.375 mg/kg (adult mongrel dogs [1]; [4]): 7%; change in vivo at 0.375 mg/kg (adult mongrel dogs [1]; [5]): -25%; change in vivo at 0.375 mg/kg (adult mongrel dogs [1]; [6]): 46%
CCOc1cc2c([N+](=O)[O-])c(OC(=O)C(C)(C)C)nc(C)c2cc1OC [Cmpd 23]	27	5	3	24	–
CCOc1cc2c(C)nc(OC(=O)c3ccccc3)c([N+](=O)[O-])c2cc1OC [Cmpd 8]	–	–	–	–	change in vivo at 0.375 mg/kg (adult mongrel dogs [1]; [3]): 124%; change in vivo at 0.375 mg/kg (adult mongrel dogs [1]; [4]): 10%; change in vivo at 0.375 mg/kg (adult mongrel dogs [1]; [5]): -20%; change in vivo at 0.375 mg/kg (adult mongrel dogs [1]; [6]): 54%
COc1cc2c(C)nc(OC(=O)N(c3ccccc3)c3ccccc3)c(N)c2cc1OC [Cmpd 36]	26	9	-1	26	–
CCN(CC)C(=O)Oc1nc(C)c2cc(OC)c(OC)cc2c1[N+](=O)[O-] [Cmpd 27, 3-Diethylcarbamyloxy-6,7-dimethoxy-1-methyl-4-nitroisoquinoline]	87	46	17	41	change in vivo at 6.2 mg/kg (adult mongrel dogs [2]; read-out: HR: percent change in heart rate, dose 6.2 mpk, relative to controls): 13%; change in vivo at 6.2 mg/kg (adult mongrel dogs [2]; read-out: MABP: percent change in mean arterial blood pressure, dose 6.2 mpk, relative to controls): -12%; change in vivo at 6.2 mg/kg (adult mongrel dogs [2]; read-out: RVR: percent change in renal vascular resistance, dose 6.2 mpk, relative to controls): -30%
CCC(=O)Nc1c(OC(=O)CC)nc(C)c2cc(OC)c(OC)cc12 [Cmpd 33, 6,7-Dimethoxy-1-methyl-4-[N-propanamido]-3-propanoyloxyisoquinoline]	132	18	17	84	change in vivo at 6.2 mg/kg (adult mongrel dogs [2]; dose 6.2 mpk, relative to controls, read-out: HR: percent change in heart rate): -9%; change in vivo at 6.2 mg/kg (adult mongrel dogs [2]; dose 6.2 mpk, relative to controls, read-out: MABP: percent change in mean arterial blood pressure): -9%; change in vivo at 6.2 mg/kg (adult mongrel dogs [2]; dose 6.2 mpk, relative to controls, read-out: RBF: percent change in renal blood flow): 41%; change in vivo at 6.2 mg/kg (adult mongrel dogs [2]; dose 6.2 mpk, relative to controls, read-out: RVR: percent change in renal vascular resistance): -35%
CCN(CC)c1c(OC(C)=O)nc(C)c2cc(OC)c(OC)cc12 [Cmpd 29, 3-Acetoxy-4-(N,N-diethylamino)-6,7-dimethoxy-1-methylisoquinoline 1/2 Hydrate]	79	13	6	58	–
COc1cc2c(C)nc(OC(=O)N(C)C)c(N)c2cc1OC [Cmpd 39]	76	16	-1	73	–
